Here are results for two molecules from ChEMBL document CHEMBL2396520, “The development of CNS-active LRRK2 inhibitors using property-directed optimisation” (Bioorg Med Chem Lett, 2013).

Data set [1] deals with T1, Leucine-rich repeat serine/threonine-protein kinase 2 (Homo sapiens, UniProt Q5S007, G2019S). In words: Inhibition of GST-tagged LRRK2 (1326 to 2527 amino acids) G2019S mutant (unknown origin).
The test system of the next data set is Brain. The data set can be described thus: Drug uptake in mouse brain at 1 mg/kg, iv. Format: ADME, organism-based. Further details: dose 1 mg/kg, route intravenous. The conditions noted are these: in vivo.
Data set [2] has as its target T1, Leucine-rich repeat serine/threonine-protein kinase 2. The data set can be described thus: Inhibition of human recombinant LRRK2 G2019S mutant using biotin-LRRKtide as substrate preincubated for 15 mins prior to substrate addition measured after 60 mins by TR-FRET assay. (In general: TR-FRET usually uses a lanthanide donor and a delayed reading to cut background.)

Data set [3] deals with Leucine-rich repeat serine/threonine-protein kinase 2 (Homo sapiens, UniProt Q5S007). The data set can be described thus: Inhibition of human recombinant wild type LRRK2 using biotin-LRRKtide as substrate preincubated for 15 mins prior to substrate addition measured after 60 mins by TR-FRET assay.
Leucine-rich repeat serine/threonine-protein kinase 2 (Homo sapiens, UniProt Q5S007), sequence (Q5S007 whole entry): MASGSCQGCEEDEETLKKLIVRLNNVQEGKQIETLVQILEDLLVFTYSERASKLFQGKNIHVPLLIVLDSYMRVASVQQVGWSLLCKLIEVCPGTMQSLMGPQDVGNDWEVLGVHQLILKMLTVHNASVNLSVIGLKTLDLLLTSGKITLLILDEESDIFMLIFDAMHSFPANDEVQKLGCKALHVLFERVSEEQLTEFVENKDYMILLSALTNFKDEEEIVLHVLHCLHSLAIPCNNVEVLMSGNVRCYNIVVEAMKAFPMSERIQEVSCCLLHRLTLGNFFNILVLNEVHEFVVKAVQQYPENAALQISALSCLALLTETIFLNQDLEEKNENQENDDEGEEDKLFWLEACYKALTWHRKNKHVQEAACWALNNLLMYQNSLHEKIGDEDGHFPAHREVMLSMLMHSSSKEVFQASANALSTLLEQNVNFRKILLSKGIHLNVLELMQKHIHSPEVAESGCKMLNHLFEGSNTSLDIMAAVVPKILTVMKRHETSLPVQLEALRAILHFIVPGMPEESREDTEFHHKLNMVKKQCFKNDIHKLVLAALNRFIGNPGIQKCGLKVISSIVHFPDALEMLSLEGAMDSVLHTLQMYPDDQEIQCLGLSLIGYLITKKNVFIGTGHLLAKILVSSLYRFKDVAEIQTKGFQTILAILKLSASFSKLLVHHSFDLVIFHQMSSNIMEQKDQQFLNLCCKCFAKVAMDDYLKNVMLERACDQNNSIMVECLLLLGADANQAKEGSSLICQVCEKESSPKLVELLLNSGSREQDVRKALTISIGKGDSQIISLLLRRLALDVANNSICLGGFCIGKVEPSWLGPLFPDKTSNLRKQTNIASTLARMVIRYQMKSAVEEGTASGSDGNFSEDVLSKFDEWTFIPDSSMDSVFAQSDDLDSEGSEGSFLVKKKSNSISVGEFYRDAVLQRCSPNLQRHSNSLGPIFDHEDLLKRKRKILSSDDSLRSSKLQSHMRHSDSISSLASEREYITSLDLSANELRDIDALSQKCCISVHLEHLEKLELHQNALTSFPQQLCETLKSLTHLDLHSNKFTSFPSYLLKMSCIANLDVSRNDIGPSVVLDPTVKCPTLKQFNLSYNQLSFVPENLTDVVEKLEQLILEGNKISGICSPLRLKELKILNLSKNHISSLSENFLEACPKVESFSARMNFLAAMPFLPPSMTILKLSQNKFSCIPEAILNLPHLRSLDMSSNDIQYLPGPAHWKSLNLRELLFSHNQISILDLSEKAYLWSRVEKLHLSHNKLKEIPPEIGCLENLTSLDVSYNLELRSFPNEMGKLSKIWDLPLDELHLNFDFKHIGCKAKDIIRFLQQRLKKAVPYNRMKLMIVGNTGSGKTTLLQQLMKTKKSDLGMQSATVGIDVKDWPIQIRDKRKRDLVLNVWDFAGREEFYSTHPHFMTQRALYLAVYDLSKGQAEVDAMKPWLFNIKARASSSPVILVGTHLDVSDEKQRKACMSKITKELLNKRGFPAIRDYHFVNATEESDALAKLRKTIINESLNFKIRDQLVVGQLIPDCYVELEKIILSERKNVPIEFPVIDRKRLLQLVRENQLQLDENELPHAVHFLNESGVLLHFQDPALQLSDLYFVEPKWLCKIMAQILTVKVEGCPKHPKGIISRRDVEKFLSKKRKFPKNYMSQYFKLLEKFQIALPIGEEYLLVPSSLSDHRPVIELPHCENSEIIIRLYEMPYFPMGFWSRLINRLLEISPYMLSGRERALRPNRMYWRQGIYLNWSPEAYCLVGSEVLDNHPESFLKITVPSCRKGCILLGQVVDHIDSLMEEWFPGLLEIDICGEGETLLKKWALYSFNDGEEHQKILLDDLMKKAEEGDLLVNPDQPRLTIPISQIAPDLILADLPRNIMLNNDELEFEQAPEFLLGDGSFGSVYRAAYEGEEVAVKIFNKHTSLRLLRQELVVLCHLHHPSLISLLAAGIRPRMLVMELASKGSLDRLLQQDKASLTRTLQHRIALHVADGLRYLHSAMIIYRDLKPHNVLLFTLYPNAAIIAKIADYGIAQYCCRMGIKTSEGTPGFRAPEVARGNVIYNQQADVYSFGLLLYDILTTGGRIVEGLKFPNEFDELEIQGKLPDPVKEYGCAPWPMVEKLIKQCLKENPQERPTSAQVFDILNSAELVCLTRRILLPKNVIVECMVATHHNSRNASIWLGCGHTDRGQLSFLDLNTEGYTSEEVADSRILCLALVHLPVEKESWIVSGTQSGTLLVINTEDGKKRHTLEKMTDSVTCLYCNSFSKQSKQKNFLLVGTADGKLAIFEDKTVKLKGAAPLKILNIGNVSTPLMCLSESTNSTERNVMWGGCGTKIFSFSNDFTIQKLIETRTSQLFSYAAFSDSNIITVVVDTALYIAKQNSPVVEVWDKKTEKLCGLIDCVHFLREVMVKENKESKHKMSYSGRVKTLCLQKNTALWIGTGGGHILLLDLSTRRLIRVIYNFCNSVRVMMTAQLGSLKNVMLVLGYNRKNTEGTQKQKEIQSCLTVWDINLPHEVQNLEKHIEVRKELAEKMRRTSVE

T1 sequence (Q5S007 whole entry G2019S, the tested form may be a part): as the sequence (Q5S007 whole entry) above, with G2019S counted along it

A word on the Ki: it is the dissociation constant of the complex between target and ligand, obtained from inhibition or displacement. On to `COc1cc(C(=O)N2CCC(N3CCN(C)CC3)CC2)ccc1Nc1ncc2c(n1)N(C)c1ccccc1C(=O)N2C`, for which the Ki in data set [1] was 6 nM.

The term IC50 denotes the concentration that inhibits the measured activity by half. In the data set with Brain, `COc1cc(N2CCOCC2)ccc1Nc1ncc(F)c(Nc2ccccc2NS(C)(=O)=O)n1` showed a Drug uptake of 4%. Also, the values for the IC50 in data set [2] and in data set [3] were 7 nM and 4 nM, respectively. In data set [2], the inhibition constant Ki was determined as 7 nM.
